The values that follow come from US20130310387A1, “Monocyclic Heteroaryl Cycloalkyldiamine Derivatives” (NOVARTIS AG, priority 2012, published 2013).

One test concerns OCI-Ly10 cells. In words: B-cell lymphoma cell proliferation (WST-1 assay), OCI-Ly10. The class given is cell-based. To be noted: Homo sapiens, 72 h; OCI-Ly10, 3 days of incubation. On the procedure: Cell proliferation was determined using the WST-1 assay (Roche, Mannheim, Germany), which measures the metabolic activity of the cells. Briefly, 5×10^5 TMD-8, OCI-Ly3, and OCI-Ly10 cells/well and 10×10^5 HBL-1 cells/well were seeded in triplicate in 96-well plates and were incubated with various concentrations of compounds to be tested for 3 days. The cell proliferation reagent WST-1 (10 μl/well) was added to the cells for 1-2 hours depending on the cell type which were cultured in 200 μl of medium. The absorbance was then measured with an enzyme-linked immunosorbent assay plate reader at a wavelength of 450 nm.
(In general: Formazan colour is commonly taken as a measure of viable cells.)

In test [1] the test system is SLP-76 phosphorylation in human whole blood monocytes. In words: FcR stimulation-induced SLP-76 phosphorylation in human whole blood monocytes. It counts as cell-based. To be noted: Monocyte, 5 min, anti CD32 stimulation 5 min, flow cytometry, read-out: Fc Recepor stimulation induced SLP-76 phosphorylation in human whole blood monocytes, IC50. The text has this:
After lysis of erythrocytes and washings, the cell pellet was permeabilized with ice-cold methanol 90%. The permeabilized cells were washed and stained with anti CD14 (eBioscience) to detect monocytes and anti P-SLP76 ([…]) (BD Biosciences) and quantified by flow cytometry.

A further test deals with OCI-Ly3 cells. In words: B-cell lymphoma cell proliferation (WST-1 assay), OCI-Ly3. It counts as cell-based. The settings on record: OCI-Ly3, 3 days of incubation. As for the experimental part:
Cell proliferation was determined using the WST-1 assay (Roche, Mannheim, Germany), which measures the metabolic activity of the cells. […] The cell proliferation reagent WST-1 (10 μl/well) was added to the cells for 1-2 hours depending on the cell type which were cultured in 200 μl of medium. The absorbance was then measured with an enzyme-linked immunosorbent assay plate reader at a wavelength of 450 nm.

In another test the test system is HBL-1 cells. In words: cells. To be noted: HBL1, 96 h.
Test [2] has as its target Syk (2-635) (KSYK_HUMAN, P43405) (Homo sapiens, UniProt P43405). In words: Syk enzyme assay (chip based microfluidic mobility shift assay). It counts as biochemical. To be noted: 4 μM ATP, 4 nM Syk, 60 minutes at 30° C. On the procedure: A number of compounds of the present invention were assayed in a chip based microfluidic mobilitiy shift assay. All assays were performed in 384 well microtiter plates. Each assay plate contained 8-point serial dilutions for 40 test compounds, as well as four 8-point serial dilutions of staurosporine as reference compound, plus 16 high- and 16 low controls. Liquid handling and incubation steps were done on a Thermo CatX workstation equipped with a Innovadyne Nanodrop Express. Between pipetting steps, tips were cleaned in wash cycles using wash buffer. The assay plates were prepared by addition of 50 nl per well of compound solution in 90% DMSO. […] Kinase reactions were incubated at 30° C. for 60 minutes and subsequently terminated by addition of 16 μl per well of stop solution (100 mM HEPES pH 7.5, 5% DMSO, 0.1% Caliper coating reagent, 10 mM EDTA, and 0.015% Brij35). Plates with terminated kinase reactions were transferred to the Caliper LC3000 workstations for reading. Phosphorylated and unphosphorylated peptides were separated using the Caliper microfluidic mobility shift technology. Briefly, samples from terminated kinase reactions were applied to the chip. Analytes are transported through the chip by constant buffer flow and the migration of the substrate peptide is monitored by the fluorescence signal of its label. Phosphorylated peptide (product) and unphosphorylated peptide (substrate) are separated in an electric field by their charge/mass ratio. Kinase activities were calculated from the amounts of formed phospho-peptide. […] values were determined from percent inhibition values at different compound concentrations by non-linear regression analysis.
Test compounds were dissolved in DMSO (10 mM) and transferred into 1.4 mL flat bottom or V-shaped Matrix tubes carrying a unique 2D matrix. The stock solutions were stored at […] if not used immediately. For the test procedure the vials were defrosted and identified by a scanner whereby a working sheet was generated that guided the subsequent working steps.
Compound dilutions were made in 96 well plates. This format enabled the assay of maximally 40 individual test compounds at 8 concentrations (single points) including 4 reference compounds. The dilution protocol included the production of “pre-dilution plates”, “master plates” and “assay plates”.
96 polypropylene well plates were used as pre-dilution plates. A total of 4 pre-dilution plates were prepared including 10 test compounds each on the plate positions A1-A10, one standard compound at A11 and one DMSO control at A12. All dilution steps were done on a HamiltonSTAR robot.
30 μL of individual compound dilutions including standard compound and controls of the 4 “pre-dilution plates” were transferred into a 384 “master plate” including the following concentrations 1′810, 362, 72.5, […], 14.5, 2.9, 0.58 and 0.12 μM, respectively in 90% of DMSO.
Identical “assay plates” were then prepared by pipetting […] each of compound dilutions of the “master plates” into 384-well “assay plates” by means of a HummingBird 384-channel dispenser. These plates were used directly for the assay which was performed in a total volume of 9.05 μL. This led to a final compound concentration of 10, 2.0, 0.4, 0.08, 0.016, 0.0032, 0.00064 and 0.000128 μM and a final DMSO concentration of 0.5% in the assay.

In a further test the test system is TMD-8 cells. In words: cells. The settings on record: Homo sapiens, TMD8, 96 h.

Regarding `NC(=O)c1nnc(N[C@@H]2CCCC[C@@H]2N)nc1Nc1cccc2cc[nH]c12` [Example 1.1, 3-((1R,2S)-2-Amino-cyclohexylamino)-5-(1H-indol-7-ylamino)-[1,2,4]triazine-6-carboxylic acid amide], the GI50 in the test with OCI-Ly10 cells was 25 nM; in the test with OCI-Ly3 cells it was “No inhibition”; in the test on HBL-1 cells it was 105 nM; in the test on TMD-8 cells it was 281 nM. Moreover, the IC50 in test [1] is 378 nM; in test [2] it was 23 nM.

By GI50 is commonly meant the concentration at which growth is held to half of that of the control. Low values mean more potent growth inhibition, high ones less potent growth inhibition. As usually defined, the IC50 is the concentration at which inhibition is half-maximal.
